Results on 2 compounds are retold here after patent US4436752A, “Treatment of gastric and gastro-duodenal disorders with derivatives of phenyl aliphatic carboxylic acids” (Roussel Uclaf, priority 1981, dated 1984).

Series [1] has as its system ulcers in rats at the level of the stomach. As to the kind of experiment: Determination of the anti-ulcer activity (SHAY's technique, ulcers induced by ligature of the pylorus). The format is in vivo. The following applies: rat, per os, about 16 hours after treatment. The source says: (1) Determination of the anti-ulcer activity
The technique used is described by SHAY et al. in Gastroenterology, 5, 43 (1945).
SHAY's technique consists of inducing ulcers in rats at the level of the stomach by ligature of the pylorus.
The animals are anesthetized with ether. A longitudinal incision is made about 1 cm below the sternum, the glandular portion of the stomach and the duodenum are uncovered and a ligature is placed a few millimeters below the pylorus. The muscular plane is left as is and the skin is sutured by two clips.
The animals then immediately receive the dispersive or the substance to be studied per os in a volume of 0.5 ml/100 g, and are kept without food or drink until sacrificed by carotid section, effected about 16 hours after the treatment.
Before removing the stomach, a ligature is placed above the cardia.
The gastric fluid is collected in order to measure its pH.
The stomach is then opened along the greater curvature, rinsed in physiological serum and spread on graph paper in order to be examined under a binocular lens.
The severity of the lesions, graded from 0 to 4 for each stomach, is then evaluated macroscopically.
The average intensity of the ulcerations is determined for each lot of rats and the protection is calculated as the ratio of the mean index for the treated group to the mean index for the control group.
The pH of the gastric fluid is also determined for the treated animals and the control animals.

Series [2] is described as follows: Determination of acute toxicity (LD50, oral route). The note with it: mouse, in vivo, mice. The protocol: (2) Determination of acute toxicity
The lethal dose LD50 of the derivatives of Examples 1 and 2 was evaluated after administration by oral route to mice.

As a reminder, the LD50 is the dose at which mortality reaches 50%. Higher therefore signals a less toxic substance. Take `COc1ccc(C(=O)CC(O)C(=O)O)c(OC)c1OC` (stereo not shown) [Example 1, 4-(2,3,4-trimethoxyphenyl)-4-oxo-2-hydroxy butanoic acid]: the “Ulceration % protection, with respect to the controls” value in series [1] (100 mg/kg) amounted to 41%. In addition, the “pH of the gastric fluid, treated animals” value in series [1] (100 mg/kg, control animals 2.7) is on record as 3.3. Moreover, in series [2], the LD50 was greater than 1000 mg/kg.
For the compound `COc1ccc(C(=O)/C=C/C(=O)O)c(OC)c1OC` [Example 2, (E) 4-(2,3,4-trimethoxyphenyl)-4-oxo-2-butenoic acid], the results for the “Ulceration % protection, with respect to the controls” value in series [1] (0.8 mg/kg), in series [1] (4 mg/kg) and in series [1] (20 mg/kg) were 17%, 76% and 99%, respectively. The “pH of the gastric fluid, treated animals” value in series [1] (0.8 mg/kg, control animals 3.5) is given as 3.1; in series [1] (4 mg/kg, control animals 3.2), 3.7; in series [1] (20 mg/kg, control animals 3.2), 5.8. For the same compound, in series [2], the LD50 is roughly 300 mg/kg.
